Laboratory results from patent publication US6407099B1, “Arylpiperidinopropanol and arylpiperazinopropanol derivatives and pharmaceuticals containing the same” (Suntory Limited, priority 1997, dated 2002).

Experiments:
Sodium channel = experiment: Inhibitory effect of veratrizine-induced sodium channel activity (synaptozome membrane potential, Rhodamine 6G); assay type: biochemical, Wistar rats; details: compound 0.1 μM; rat brain synaptozomes, veratrizine-induced depolarization
Source text: Inhibitory Effect of Veratrizine-induced Sodium Channel Activity

DBA/2N type mice = experiment: Audiogenic seizure suppressing effect; assay type: in vivo; details: compound 10 mg/kg, i.p., audio stimulus after 20 minutes, seizure score; for inhibition in vivo at 10 mg/kg: Mus musculus, ip, 20 min, read-out: Antiseizure effect (suppression rate %); for Antiseizure effect (suppression rate %): 10 mg/kg
Description: Audiogenic Seizure Suppressing Effect
The audiogenic seizure suppressing effect of the compounds was evaluated by the method of Sarro et al. [G. B. De Sarro et al., Br. J. Pharmacol., 93, 247 (1988)]. That is, the compound dissolved in 10% 2-hydroxypropyl-β-cyclodextrin was administered intraperitoneally to DBA/2N type mice (male, 3 weeks old). After 20 minutes, a supersonic washer was used to apply audio stimulus of at least 90 dB for 1 minute. The wild running (WR), clonic seizures (clonus), tonic seizures (tonus), and the respiratory arrest (RA) were observed. The seizure suppressing effect was evaluated from the rate of suppression of the average value of the seizure score found as 0=no response, 1=WR, 2=clonus, 3=tonus, and 4=RA.

T-type Ca^2+ channel = experiment: T-type calcium channel inhibitory effect (whole-cell patch clamp, hippocampal CA1 pyramidal cells); assay type: cell-based, Wistar rats; details: rat hippocampal CA1 pyramidal cells; peak current after 1 minute of application
Description: T-Type Calcium Channel Inhibitory Effect
The hippocampal CA1 pyramidal cells were isolated from Wistar rats (female, 1 week old) in according to the method reported by Takahashi et al. [K. Takahashi et al.; J. Pharmacol. Exp. Ther., 256, 169 (1991)] and the T-type calcium current was measured under conditions of a fixed membrane potential using the whole-cell configuration of the patch clamp technique. The effects of the compounds were evaluated from the rate of suppression of the peak current after 1 minute of application using the concentration clamp method.

Dopamine D2 receptor = biological target: T1, Dopamine D2 receptor (Rattus norvegicus, UniProt P61169); experiment: Dopamine D2 receptor blocking action ([^3H] raclopride, striatum membrane fraction); assay type: binding, Wistar male rats; details: 1.0 nM [^3H] raclopride, 25° C., 1 hour
T1 construct: membrane fraction prepared from the striatum of Wistar male rats; from tissue; host or cells: rat striatum membrane fraction
Description: Dopamine D2 Receptor Blocking Action
57 μl of the membrane fraction prepared from the striatum of Wistar male rats (6 weeks old) was incubated together with the compound and 1.0 nM [^3H] raclopride in a buffer at 25° C. for 1 hour. A GF/C glass filter (0.1% polyethylene imine treatment) was used for B/F separation. A beta plate was used for measurement of the radioactivity to evaluate the effect of the compound.

Acute toxicity test = details: male, mouse, in vivo, iv, ddY mice, death rate up to 24 hours after administration
Description: A pharmaceutical preparation was administered intravenously to ddY mice (male, 6 weeks old). The 50% lethal dosage LD50 of the acute toxicity was calculated by an ordinary method from the death rate up to 24 hours after administration.

T1 sequence (P61169 whole entry): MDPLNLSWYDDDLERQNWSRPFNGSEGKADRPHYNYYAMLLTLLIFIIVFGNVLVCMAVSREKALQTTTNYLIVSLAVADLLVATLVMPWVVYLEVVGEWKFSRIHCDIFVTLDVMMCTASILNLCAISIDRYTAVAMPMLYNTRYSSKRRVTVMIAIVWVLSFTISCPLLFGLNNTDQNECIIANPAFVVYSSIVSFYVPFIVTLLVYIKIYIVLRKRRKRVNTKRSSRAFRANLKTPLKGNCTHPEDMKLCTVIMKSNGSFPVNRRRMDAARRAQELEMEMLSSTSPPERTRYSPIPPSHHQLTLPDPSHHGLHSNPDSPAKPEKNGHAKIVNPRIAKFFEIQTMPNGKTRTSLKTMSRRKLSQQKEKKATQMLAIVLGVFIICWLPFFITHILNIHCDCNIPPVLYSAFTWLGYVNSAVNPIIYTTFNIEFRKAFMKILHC

Compound: Nc1ccc(OC[C@@H](O)CN2CCC(c3ccc(Oc4ccccc4)cc3)CC2)cc1 [Compound 25, (2S)-1-(4-aminophenoxy)-3-[4-(4-phenoxyphenyl)piperidin-1-yl]-2-propanol]
- Anti-veratrizine effect (inhibiting rate %) (Sodium channel): 21%
- inhibition in vivo at 10 mg/kg (DBA/2N type mice): 58%

Compound: Cc1cc(OC[C@@H](O)CN2CCC(c3ccc(Oc4ccccc4)cc3)CC2)c(C)c(C)c1N [Compound 26, (2S)-1-[(4-amino-2,3,5-trimethyl)phenoxy]-3-[4-(4-phenoxyphenyl)piperidin-1-yl]-2-propanol]
- IC50 (T-type Ca^2+ channel): 3.4 µM
- IC50 (Dopamine D2 receptor): 5.6 µM
- inhibition in vivo at 10 mg/kg (DBA/2N type mice): 74%
- LD50 at 24 h (Acute toxicity test): 41 mg/kg

Compound: Cc1cc(OC[C@@H](O)CN2CCN(c3ccc(Cc4ccc(F)cc4)cc3)CC2)c(C)c(C)c1N [Compound 28, (2S)-1-[(4-amino-2,3,5-trimethyl)phenoxy]-3-[4-(4-(4-fluorophenyl)methylphenyl)piperazin-1-yl]-2-propanol]
- IC50 (T-type Ca^2+ channel): 3 µM
- IC50 (Dopamine D2 receptor): 12 µM
- inhibition in vivo at 10 mg/kg (DBA/2N type mice): 76%
- LD50 at 24 h (Acute toxicity test): 47.3 mg/kg

Compound: Cc1cc(OC[C@@H](O)CN2CCC(O)(c3ccc(-c4ccccc4)c(F)c3)CC2)c(C)c(C)c1N [Compound 30]
- inhibition in vivo at 10 mg/kg (DBA/2N type mice): 44%

Compound: Cc1cc(OC[C@@H](O)CN2CCC(c3ccc(OC4CCCC4)cc3)CC2)c(C)c(C)c1N [Compound 31, (2S)-1-[(4-amino-2,3,5-trimethyl)phenoxy]-3-[4-(4-cyclopentyloxyphenyl)piperidin-1-yl]-2-propanol]
- inhibition in vivo at 10 mg/kg (DBA/2N type mice): 74%

Compound: Cc1cc(OC[C@@H](O)CN2CCC(c3ccc(Oc4ccccc4)cc3)CC2)c(C)cc1N [Compound 32]
- inhibition in vivo at 10 mg/kg (DBA/2N type mice): 70%

Compound: Cc1cc(OC[C@@H](O)CN2CCC(c3ccc(Cc4ccc(F)cc4)cc3)CC2)c(C)cc1N [Compound 33, (2S)-1-[(4-amino-2,5-dimethyl)phenoxy]-3-[4-(4-(4-fluorophenyl)methylphenyl)piperidin-1-yl]-2-propanol]
- inhibition in vivo at 10 mg/kg (DBA/2N type mice): 78%

Compound: Cc1cc(OC[C@@H](O)CN2CCN(c3ccc(Cc4ccc(F)cc4)cc3)CC2)c(C)cc1N [Compound 34]
- inhibition in vivo at 10 mg/kg (DBA/2N type mice): 74%

Compound: Cc1c(N)ccc(OC[C@@H](O)CN2CCC(c3ccc(Oc4ccccc4)cc3)CC2)c1C [Compound 35, (2S)-1-[(4-amino-2,3-dimethyl)phenoxy]-3-[4-(4-phenoxyphenyl)piperidin-1-yl]-2-propanol]
- inhibition in vivo at 10 mg/kg (DBA/2N type mice): 74%

Compound: Cc1c(N)ccc(OC[C@@H](O)CN2CCC(c3ccc(Cc4ccc(F)cc4)cc3)CC2)c1C [Compound 36, (2S)-1-[(4-amino-2,3-dimethyl)phenoxy]-3-[4-(4-(4-fluorophenyl)methylphenyl)piperidin-1-yl]-2-propanol]
- inhibition in vivo at 10 mg/kg (DBA/2N type mice): 68%

Compound: Cc1cc(N)c(C)c(C)c1OC[C@@H](O)CN1CCC(c2ccc(Oc3ccccc3)cc2)CC1 [Compound 38, (2S)-1-[(4-amino-2,3,6-trimethyl)phenoxy]-3-[4-(4-phenoxyphenyl)piperidin-1-yl]-2-propanol]
- inhibition in vivo at 10 mg/kg (DBA/2N type mice): 92%

Compound: Cc1cc(N)c(C)c(C)c1OC[C@@H](O)CN1CCN(c2ccc(Cc3ccc(F)cc3)cc2)CC1 [Compound 40, (2S)-1-[(4-amino-2,3,6-trimethyl)phenoxy]-3-[4-(4-(4-fluorophenyl)methylphenyl)piperazin-1-yl]-2-propanol]
- IC50 (Dopamine D2 receptor): 12 µM
- inhibition in vivo at 10 mg/kg (DBA/2N type mice): 80%
- LD50 at 24 h (Acute toxicity test): 49.1 mg/kg

Compound: COc1ccc(N)cc1OC[C@@H](O)CN1CCC(c2ccc(Oc3ccc(F)cc3)cc2)CC1 [Compound 42, (2S)-1-[(5-amino-2-methoxy)phenoxy]-3-[4-(4-(4-fluorophenoxy)phenyl)piperidin-1-yl]-2-propanol]
- Anti-veratrizine effect (inhibiting rate %) (Sodium channel): 10.3%
- inhibition in vivo at 10 mg/kg (DBA/2N type mice): 50%

Compound: COc1ccc(N)cc1OC[C@@H](O)CN1CCC(c2ccc(Cc3ccc(F)cc3)cc2)CC1 [Compound 43, (2S)-1-[(5-amino-2-methoxy)phenoxy]-3-[4-(4-(4-fluorophenyl)methylphenyl)piperidin-1-yl]-2-propanol]
- Anti-veratrizine effect (inhibiting rate %) (Sodium channel): 21%
- inhibition in vivo at 10 mg/kg (DBA/2N type mice): 30%

Compound: COc1ccc(N)cc1OC[C@@H](O)CN1CCN(c2ccc(Cc3ccc(F)cc3)cc2)CC1 [Compound 44, (2S)-1-[(5-amino-2-methoxy)phenoxy]-3-[4-(4-(4-fluorophenyl)methylphenyl)piperazin-1-yl]-2-propanol]
- inhibition in vivo at 10 mg/kg (DBA/2N type mice): 80%

Compound: COc1ccc(N)cc1OC[C@@H](O)CN1CCC(c2ccc(OC3CCCC3)cc2)CC1 [Compound 45]
- inhibition in vivo at 10 mg/kg (DBA/2N type mice): 44%

Compound: Cc1cc(C)c(OC[C@@H](O)CN2CCC(c3ccc(Oc4ccccc4)cc3)CC2)c(N)c1 [Compound 46, (2S)-1-[(2-amino-4,6-dimethyl)phenoxy]-3-[4-(4-phenoxyphenyl)piperidin-1-yl]-2-propanol]
- inhibition in vivo at 10 mg/kg (DBA/2N type mice): 88%

Compound: Cc1cc(C)c(OC[C@@H](O)CN2CCC(c3ccc(Cc4ccc(F)cc4)cc3)CC2)c(N)c1 [Compound 47, (2S)-1-[(2-amino-4,6-dimethyl)phenoxy]-3-[4-(4-(4-fluorophenyl)methylphenyl)piperidin-1-yl]-2-propanol]
- inhibition in vivo at 10 mg/kg (DBA/2N type mice): 56%

Compound: Cc1cc(C)c(OC[C@@H](O)CN2CCN(c3ccc(Cc4ccc(F)cc4)cc3)CC2)c(N)c1 [Compound 48, (2S)-1-[(2-amino-4,6-dimethyl)phenoxy]-3-[4-(4-(4-fluorophenyl)methylphenyl)piperazin-1-yl]-2-propanol]
- inhibition in vivo at 10 mg/kg (DBA/2N type mice): 70%

Compound: COc1cc(Cl)c(N)cc1OC[C@@H](O)CN1CCC(c2ccc(Oc3ccccc3)cc2)CC1 [Compound 49, (2S)-1-[(5-amino-4-chloro-2-methoxy)phenoxy]-3-[4-(4-phenoxyphenyl)piperidin-1-yl]-2-propanol]
- Anti-veratrizine effect (inhibiting rate %) (Sodium channel): 15.1%
- inhibition in vivo at 10 mg/kg (DBA/2N type mice): 42%

Compound: Nc1cc(Cl)c(OC[C@@H](O)CN2CCC(c3ccc(Oc4ccccc4)cc3)CC2)c(Cl)c1 [Compound 51, (2S)-1-[(4-amino-2,6-dichloro)phenoxy]-3-[4-(4-phenoxyphenyl)piperidin-1-yl]-2-propanol]
- inhibition in vivo at 10 mg/kg (DBA/2N type mice): 74%

Compound: COc1ccc(NCC(O)CN2CCC(c3ccc(Oc4ccccc4)cc3)CC2)c(C)c1 (centres unmarked) [Compound 53, 1-[4-(4-phenoxyphenyl)piperidin-1-yl]-3-[(4-methoxy-2-methyl)phenylamino]-2-propanol]
- IC50 (T-type Ca^2+ channel): 2.2 µM
- IC50 (Dopamine D2 receptor): 11 µM
- Antiseizure effect (suppression rate %) (DBA/2N type mice): 46%

Compound: COc1ccc(NCC(O)CN2CCC(c3ccc(Cc4ccc(F)cc4)cc3)CC2)c(C)c1 (centres unmarked) [Compound 54]
- inhibition in vivo at 10 mg/kg (DBA/2N type mice): 58%

Compound: COc1ccc(NCC(O)CN2CCN(c3ccc(Cc4ccc(F)cc4)cc3)CC2)c(C)c1 (centres unmarked) [Compound 55]
- inhibition in vivo at 10 mg/kg (DBA/2N type mice): 70%

Compound: COc1ccc(NC[C@@H](O)CN2CCC(c3ccc(Oc4ccccc4)cc3)CC2)c(C)c1 [Compound 56, (2R)-1-[4-(4-phenoxyphenyl)piperidin-1-yl]-3-[(4-methoxy-2-methyl)phenylamino]-2-propanol]
- Antiseizure effect (suppression rate %) (DBA/2N type mice): 64%

Compound: COc1ccc(NC[C@H](O)CN2CCC(c3ccc(Oc4ccccc4)cc3)CC2)c(C)c1 [Compound 57]
- Antiseizure effect (suppression rate %) (DBA/2N type mice): 68%

Compound: Cc1c(C)c(NCC(O)CN2CCC(c3ccc(Oc4ccccc4)cc3)CC2)c(C)c(C)c1N (centres unmarked) [Compound 58, 3-[(4-amino-2,3,5,6-tetramethyl)phenylamino]-1-[4-(4-phenoxyphenyl)piperidin-1-yl]-2-propanol]
- inhibition in vivo at 10 mg/kg (DBA/2N type mice): 68%
